In article PMC12592502, “Unraveling the mechanisms behind the enhanced efficacy of β-lactam-based sideromycins” (Communications Biology, 2025):
Read-outs that look alike come from different tables or passages of the source.

Key:
[1] = molecular target: T1, purified PBP3 of P. aeruginosa (PaPBP3) (Pseudomonas aeruginosa, UniProt G3XD46); test: biochemical; assay type: binding
T1 construct: (residues 53 to 579) from P. aeruginosa ATCC 27853 (PaPBP3); His6 (C); made in house; host or cells: E. coli BL21 DE3
Procedure: The PBP binding assay was done as described previously[36],[56],[57]. For each antibiotic concentration tested, a quantity of 25 to 40 μg of membrane preparation was used as the source of PBPs, depending on the species. For the purified PaPBP3, 150 ng was used in the assay. First, increasing concentrations of the test antibiotic was added to the membrane or purified PaPBP3 preparations and incubated for 10 min at 30 °C. The reporter molecule Bocillin FL was then added at 12.5 μM for the membrane PBPs preparations and at 500 nM for the pure PaPBP3 samples for an additional 20 min at 30 °C. All reactions were stopped with the addition of the Laemmli-loading buffer (Bio-Rad) containing fresh β-mercaptoethanol (Sigma). All reactions were then heated at 100°C for 3 min before migration on SDS-polyacrylamide discontinuous gel system (7.5% stacking and 10% separating). Control samples without Bocillin FL were also included to highlight autofluorescent proteins that are not PBPs.
To be able to visualize labeled PBPs after electrophoresis, gels were rinsed in water and fixed in a solution of 50% methanol and 7% acetic acid for 30 min. The fluorescent images of gels were obtained with the Typhoon FLA 9500 instrument (GE-Healthcare Bio-Sciences Inc., Baie-d’Urfé, QC, CA) using a 473 nm excitation wavelength. To obtain quantifiable data, the software Quantity One 1D analysis was used (version 4.6.6; Bio-Rad Laboratories, Richmond, CA). The volume (intensity × constant area) of each PBP was measured. […] All IC50 data were obtained from at least two independent PBP binding assays using two different sets of compound concentrations using a linear regression.

[2] = Antibiotic stability in medium without bacteria
Excerpt: This method used ultra-performance liquid chromatography-mass spectrometry (UPLC-MS) to measure the amount of test antibiotics remaining in bacterial culture supernatants over time as a means to measure antibiotic uptake by bacterial cells. The method assumes that all antibiotic molecules in the medium (i.e., those that we measured by UPLC-MS) are not bound to the PBP targets in the periplasm, whereas it is assumed that the bactericidal effect (ΔCFU/mL) is correlated to antibiotic uptake and binding to PBPs. The test strain E. coli MC4100 was cultivated overnight in 10 mL of MHBCA or ID-MHBCA at 37 °C with shaking (200 rpm). The next day, the overnight culture was diluted in fresh preheated medium to obtain an OD600 of ~0.7 in MHBCA or ID-MHBCA. The culture was further diluted 1:2 in MHBCA or ID-MHBCA (growth controls), or in MHBCA or ID-MHBCA containing the freshly prepared test antibiotic (2 × the final concentration) to obtain an initial OD600 of ~0.35 (corresponding to 8.5 log10 CFU/mL) and 200 μM of antibiotic (final concentration). Antibiotics were also added to preheated MHBCA or ID-MHBCA without bacteria to control for the stability of the molecules in the medium over time. The moment bacteria were put in contact with the test antibiotic corresponded to the first time point (0 h). For each time point thereafter, 200 μL of sample from both assay and stability test tubes were retrieved and centrifuged at 4 °C for 5 min at 8000 × g. All supernatants were filtered (0.2 μm) and flash frozen in liquid nitrogen for transport. After melting, 2 μL of the samples were injected in the UPLC-MS before the analysis. In parallel, 20 μL of assay and growth control tubes were serially diluted in 96-well plates. Ten μL of each dilution was spotted on TSA plates and incubated for 24 h at 37 °C for CFU counting.
For analysis, the determined concentration in the supernatant was adjusted for the degradation of the molecules measured in the stability control tests for each time point. The final net antibiotic concentration in the medium was calculated at each time point by adding the concentration caused by degradation to the concentration of the test antibiotic measured in the assay tubes containing bacteria. […] A second control was added for the β-lactam LOR and CEF to verify the impact of metabolic waste on the stability of the molecules. The supernatant from the 4-h growth control without antibiotic was collected by filtration 0.2 µm. LOR and CEF were then added to the filtrated supernatant at 200 µM, and degradation was measured after 3 h.

[3] = 150 ng PaPBP3, 500 nM Bocillin FL, n = 3, read-out: IC50 PaPBP3 purified

T1 sequence (G3XD46 53-579): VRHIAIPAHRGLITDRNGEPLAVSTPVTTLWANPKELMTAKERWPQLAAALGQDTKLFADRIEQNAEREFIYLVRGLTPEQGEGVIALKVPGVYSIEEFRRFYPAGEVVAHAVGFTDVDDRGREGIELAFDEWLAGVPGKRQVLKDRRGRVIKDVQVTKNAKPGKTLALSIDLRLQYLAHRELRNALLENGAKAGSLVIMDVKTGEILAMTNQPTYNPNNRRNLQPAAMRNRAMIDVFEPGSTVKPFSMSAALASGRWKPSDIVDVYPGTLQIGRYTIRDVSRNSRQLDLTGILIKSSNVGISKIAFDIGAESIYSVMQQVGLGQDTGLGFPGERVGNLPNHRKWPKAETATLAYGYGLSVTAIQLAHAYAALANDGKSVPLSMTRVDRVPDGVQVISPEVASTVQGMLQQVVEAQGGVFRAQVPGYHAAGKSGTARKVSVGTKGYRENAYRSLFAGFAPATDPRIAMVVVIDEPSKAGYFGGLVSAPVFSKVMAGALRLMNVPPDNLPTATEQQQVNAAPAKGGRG

Structure (SMILES) | IC50 [1, 3] [nM] | IC50 ratio βL/SID-βL, PaPBP3 purified [1] | percentage of antibiotic degradation ([2]; 2 h, ID-MHBCA) | percentage of antibiotic degradation ([2]; 2 h, MHBCA) [%] | percentage of antibiotic degradation ([2]; 4 h, ID-MHBCA) [%] | percentage of antibiotic degradation ([2]; 4 h, MHBCA) [%] | percentage of antibiotic degradation ([2]; 6 h, ID-MHBCA) [%] | percentage of antibiotic degradation ([2]; 6 h, MHBCA) [%] | percentage of antibiotic degradation ([2]; 8 h, ID-MHBCA) [%] | percentage of antibiotic degradation ([2]; 8 h, MHBCA) [%] | percentage of antibiotic degradation ([2]; 10 h, ID-MHBCA) [%] | percentage of antibiotic degradation ([2]; 10 h, MHBCA) [%] | percentage of antibiotic degradation ([2]; 24 h, ID-MHBCA) [%] | percentage of antibiotic degradation ([2]; 24 h, MHBCA) [%] | other results
CC1(C)S[C@@H]2[C@H](NC(=O)[C@H](N)c3ccccc3)C(=O)N2[C@H]1C(=O)O [AMP, ampicillin, reference compound] |  |  |  |  |  |  |  |  |  |  |  |  |  |  | IC50 [1]: 74 ± 29 nM
CC1(C)SC2C(NC(=O)C(NC(=O)CN(CCCCNC(=O)c3cccc(O)c3O)C(=O)c3cccc(O)c3O)c3ccccc3)C(=O)N2C1C(=O)O (centres unmarked) [BAMP, bis-catechol (azotochelin)-ampicillin] | 76 ± 31 | 0.97 |  |  |  |  |  |  |  |  |  |  |  |  | 
O=C(CN(CCCCNC(=O)c1cccc(O)c1O)C(=O)c1cccc(O)c1O)NC(C(=O)NC1C(=O)N2C(C(=O)O)=C(Cl)CCC12)c1ccccc1 (centres unmarked) [BLOR, bis-catechol (azotochelin)-loracarbef] | 380 ± 70 | 23 | NDD | 6 | 3 | 15 | 6 | 15 | 14 | 26 | 9 | 22 | 14 | 28 | 
N[C@@H](C(=O)N[C@@H]1C(=O)N2C(C(=O)O)=C(Cl)CS[C@H]12)c1ccccc1 [CEF, cefaclor, reference compound] |  |  |  |  |  |  |  |  |  |  |  |  |  |  | percentage of antibiotic degradation ([2]; 2 h, 200 μM): 14%
N[C@@H](C(=O)N[C@@H]1C(=O)N2C(C(=O)O)=C(Cl)CC[C@H]12)c1ccccc1 [LOR, loracarbef, reference compound] | 8600 ± 3600 |  |  |  |  |  |  |  |  |  |  |  |  |  | percentage of antibiotic degradation [2]: NDD
O=C(CCC(=O)N(CCCCNC(=O)c1cccc(O)c1O)CCCNC(=O)c1cccc(O)c1O)NCCCCCN(O)C(=O)CCCC(=O)NC(C(=O)NC1C(=O)N2C(C(=O)O)=C(Cl)CSC12)c1ccccc1 (centres unmarked) [MCEF, mixed ligand bis-catechol-mono-hydroxamate-cefaclor] |  |  | 5% | 12 | 18 | 25 | 22 | 29 | 31 | 41 | 29 | 38 | 43 | 54 | 
